Data reported in patent US20110229450A1, “ENZYMES AND METHODS FOR DEGRADING S-TRIAZINES AND DIAZINES” (Commonwealth Scientific and industrial Research Organisation, priority 2008, published 2011).
Read-outs that look alike come from different tables or passages of the source.

Legend:
TrzN = conditions: from Shapir et al. (2006); ametryn = 1; cited from earlier work
TrzN cc3.2 = experiment: Substrate range: hydrolysis of triazines by purified TrzN cc3.2 (loss of absorbance at 264 nm); format: biochemical; conditions: for Hydrolysis by TrzN cc3.2: purified enzyme; for Relative Activity in TrzN cc3.2: specific activity at 100 μM substrate and 41 nM TrzN cc3.2, ametryn = 1
Apo-TrzNcc3.2 = experiment: Saturation of Apo-TrzNcc3.2 with Zn^2+; format: binding
[1] = read-out: Kd for zinc; cited from earlier work
[2] = from 5 litres; Shapir et al. (2005); cited from earlier work
[3] = format: cell-based, E. coli strain BL21 λDE3; conditions: for Time to clear: 1% atrazine (w/v), 1 mM IPTG LB agar plates, 37° C., BL21 λDE3 pETcc2; for atrazine dechlorinase activity / clearing rate after substitution, compared with wild-type or parental gene: site-saturation and random mutagenesis
[4] = read-out: Km for atrazine; cited from earlier work
[5] = Atrazine clearing plate assay, low-level constitutive vector pCS150 in three E. coli strains; format: cell-based; conditions: E. coli JM109, DH10β and BL21 λDE3, 37° C.
Procedure: Random and site-saturated libraries were screened using LB agar plates supplemented with 200 μg.mL^−1 ampicillin, 1 μM IPTG and impregnated with 1 mg.mL^−1 atrazine (90% atrazine w/w; Gesaprim 900 WG, Syngenta). […] The level of activity was determined by the rate at which the clarification occurred.
The entire coding region for both TrzNcc3.2 and wild-type TrzN were moved from the inducible, high-level expression vector pETcc2 into a low-level, constitutive expression vector (pCS150, Scott et al., 2009). The resultant vectors were used to transform E. coli JM109, DH10β, and BL21 λDE3 cells. The six resultant strains were tested for their rates of clearing using the atrazine clearing plate assay.

CCNc1nc(NC(C)C)nc(SC)n1 [Ametryn, N2-ethyl-N4-isopropyl-6-methylthio-1,3,5-triazine-2,4-diamine]
Relative Activity in TrzN* (TrzN): 1 | Hydrolysis by TrzN cc3.2 (TrzN cc3.2): able to hydrolyse | Relative Activity in TrzN cc3.2 (TrzN cc3.2): 1

CCNc1nc(Cl)nc(NC(C)C)n1 [Atrazine, 6-chloro-N-ethyl-N′-(1-methylethyl)-1,3,5-triazine-2,4-diamine]
Relative Activity in TrzN* (TrzN): 0.16 | Hydrolysis by TrzN cc3.2 (TrzN cc3.2): able to hydrolyse | Relative Activity in TrzN cc3.2 (TrzN cc3.2): 1.36

CCNc1nc(Cl)nc(NC(C)(C)C#N)n1 [Cyanozine, 2-[[4-chloro-6-(ethyamino)-1,3,5-triazin-2-yl]amino]-2-methylpropanenitrile]
Hydrolysis by TrzN cc3.2 (TrzN cc3.2): able to hydrolyse | Relative Activity in TrzN cc3.2 (TrzN cc3.2): 0.43

CCN(CC)c1nc(Cl)nc(NC(C)C)n1 [Ipazine, 6-chloro-N,N-diethyl-N′-(1-methylethyl)-1,3,5-triazine-2,4-diamine]
Hydrolysis by TrzN cc3.2 (TrzN cc3.2): able to hydrolyse | Relative Activity in TrzN cc3.2 (TrzN cc3.2): 0.07

CSc1nc(NC(C)C)nc(NC(C)C)n1 [Prometryn, N2,N4-diisopropyl-6-methylthio-1,3,5-triazine-2,4-diamine]
Hydrolysis by TrzN cc3.2 (TrzN cc3.2): able to hydrolyse | Relative Activity in TrzN cc3.2 (TrzN cc3.2): 1

CC(C)Nc1nc(Cl)nc(NC(C)C)n1 [Propazine, 6-chloro-N,N′-bis(1-methylethyl)-1,3,5-triazine-2,4-diamine]
Hydrolysis by TrzN cc3.2 (TrzN cc3.2): able to hydrolyse | Relative Activity in TrzN cc3.2 (TrzN cc3.2): 0.86

CCNc1nc(Cl)nc(NCC)n1 [Simazine, 6-chloro-N,N″-diethyl-1,3,5-triazine-2,4-diamine]
Relative Activity in TrzN* (TrzN): 0.41 | Hydrolysis by TrzN cc3.2 (TrzN cc3.2): able to hydrolyse | Relative Activity in TrzN cc3.2 (TrzN cc3.2): 1.36

CCNc1nc(NCC)nc(SC)n1 [Simetryn, N2,N4-diethyl-6-methylthio-1,3,5-triazine-2,4-diamine]
Relative Activity in TrzN* (TrzN): 0.14 | Hydrolysis by TrzN cc3.2 (TrzN cc3.2): able to hydrolyse | Relative Activity in TrzN cc3.2 (TrzN cc3.2): 0.57

CCNc1nc(Cl)nc(N(CC)CC)n1 [Trietazine, 6-chloro-N,N,N′-triethyl-1,3,5-triazine-2,4-diamine]
Hydrolysis by TrzN cc3.2 (TrzN cc3.2): able to hydrolyse | Relative Activity in TrzN cc3.2 (TrzN cc3.2): 0.04

[Zn+2] [Zn^2+]
EC50 (Apo-TrzNcc3.2; read-out: ZnCl2 concentration at which half maximal activity was recovered): 2.6 µM | Kd (Apo-TrzNcc3.2; read-out: dissociation constant for Zn^2+): 2.6 µM

superoxide dismutase
Kd [1]: 10 pM

B1: TrzN Wildtype: Wild-type TrzN triazine hydrolase, SEQ ID NO:1; codon optimised open reading frame TrzNco, SEQ ID NO:2 (protein, listed as Arthrobacter aurescens)
chain: MILIRGLTRVITFDDQERELEDADILIDGPKIVAVGKDLSDRSVSRTIDGRGMIALPGLINSHQHLYEGAMRAIPQLERVTMASWLEGVLTRSAGWWRDGKFGPDVIREVARAVLLESLLGGITTVADQHLFFPGATADSYIDATIEAATDLGIRFHAARSSMTLGKSEGGFCDDLFVEPVDRVVQHCLGLIDQYHEPEPFGMVRIALGPCGVPYDKPELFEAFAQMAADYDVRLHTHFYEPLDAGMSDHLYGMTPWRFLEKHGWASDRVWLAHAVVPPREEIPEFADAGVAIAHLIAPDLRLGWGLAPIREYLDAGITVGFGTTGSASNDGGNLLGDLRLAALAHRPADPNEPEKWLSARELLRMATRGSAECLGRPDLGVLEEGRAADIACWRLDGVDRVGVHDPAIGLIMTGLSDRASLVVVNGQVLVENERPVLADLERIVANTTALIPKNL
yield of partial purification [2]: 2.8 mg | Time to clear [3]: None | Time to clear ([3]; listed as trzNco): > 30 days | Km [4]: 20 µM | Time to clear [5]: > 12 days

B2: P210A (protein)
chain: MILIRGLTRVITFDDQERELEDADILIDGPKIVAVGKDLSDRSVSRTIDGRGMIALPGLINSHQHLYEGAMRAIPQLERVTMASWLEGVLTRSAGWWRDGKFGPDVIREVARAVLLESLLGGITTVADQHLFFPGATADSYIDATIEAATDLGIRFHAARSSMTLGKSEGGFCDDLFVEPVDRVVQHCLGLIDQYHEPEPFGMVRIALGACGVPYDKPELFEAFAQMAADYDVRLHTHFYEPLDAGMSDHLYGMTPWRFLEKHGWASDRVWLAHAVVPPREEIPEFADAGVAIAHLIAPDLRLGWGLAPIREYLDAGITVGFGTTGSASNDGGNLLGDLRLAALAHRPADPNEPEKWLSARELLRMATRGSAECLGRPDLGVLEEGRAADIACWRLDGVDRVGVHDPAIGLIMTGLSDRASLVVVNGQVLVENERPVLADLERIVANTTALIPKNL
atrazine dechlorinase activity / clearing rate after substitution, compared with wild-type or parental gene [3]: improved activities

B3: S161G (protein)
chain: MILIRGLTRVITFDDQERELEDADILIDGPKIVAVGKDLSDRSVSRTIDGRGMIALPGLINSHQHLYEGAMRAIPQLERVTMASWLEGVLTRSAGWWRDGKFGPDVIREVARAVLLESLLGGITTVADQHLFFPGATADSYIDATIEAATDLGIRFHAARGSMTLGKSEGGFCDDLFVEPVDRVVQHCLGLIDQYHEPEPFGMVRIALGPCGVPYDKPELFEAFAQMAADYDVRLHTHFYEPLDAGMSDHLYGMTPWRFLEKHGWASDRVWLAHAVVPPREEIPEFADAGVAIAHLIAPDLRLGWGLAPIREYLDAGITVGFGTTGSASNDGGNLLGDLRLAALAHRPADPNEPEKWLSARELLRMATRGSAECLGRPDLGVLEEGRAADIACWRLDGVDRVGVHDPAIGLIMTGLSDRASLVVVNGQVLVENERPVLADLERIVANTTALIPKNL
atrazine dechlorinase activity / clearing rate after substitution, compared with wild-type or parental gene [3]: improved activities

B4: D38N (protein)
chain: MILIRGLTRVITFDDQERELEDADILIDGPKIVAVGKNLSDRSVSRTIDGRGMIALPGLINSHQHLYEGAMRAIPQLERVTMASWLEGVLTRSAGWWRDGKFGPDVIREVARAVLLESLLGGITTVADQHLFFPGATADSYIDATIEAATDLGIRFHAARSSMTLGKSEGGFCDDLFVEPVDRVVQHCLGLIDQYHEPEPFGMVRIALGPCGVPYDKPELFEAFAQMAADYDVRLHTHFYEPLDAGMSDHLYGMTPWRFLEKHGWASDRVWLAHAVVPPREEIPEFADAGVAIAHLIAPDLRLGWGLAPIREYLDAGITVGFGTTGSASNDGGNLLGDLRLAALAHRPADPNEPEKWLSARELLRMATRGSAECLGRPDLGVLEEGRAADIACWRLDGVDRVGVHDPAIGLIMTGLSDRASLVVVNGQVLVENERPVLADLERIVANTTALIPKNL
clearing phenotype ([3]; D38X site saturation library in a L131P A159V background): apparently improved clearing phenotypes

B5: L335M (protein)
chain: MILIRGLTRVITFDDQERELEDADILIDGPKIVAVGKDLSDRSVSRTIDGRGMIALPGLINSHQHLYEGAMRAIPQLERVTMASWLEGVLTRSAGWWRDGKFGPDVIREVARAVLLESLLGGITTVADQHLFFPGATADSYIDATIEAATDLGIRFHAARSSMTLGKSEGGFCDDLFVEPVDRVVQHCLGLIDQYHEPEPFGMVRIALGPCGVPYDKPELFEAFAQMAADYDVRLHTHFYEPLDAGMSDHLYGMTPWRFLEKHGWASDRVWLAHAVVPPREEIPEFADAGVAIAHLIAPDLRLGWGLAPIREYLDAGITVGFGTTGSASNDGGNMLGDLRLAALAHRPADPNEPEKWLSARELLRMATRGSAECLGRPDLGVLEEGRAADIACWRLDGVDRVGVHDPAIGLIMTGLSDRASLVVVNGQVLVENERPVLADLERIVANTTALIPKNL
atrazine dechlorinase activity / clearing rate after substitution, compared with wild-type or parental gene [3]: improved activities

B6: T91S (protein)
chain: MILIRGLTRVITFDDQERELEDADILIDGPKIVAVGKDLSDRSVSRTIDGRGMIALPGLINSHQHLYEGAMRAIPQLERVTMASWLEGVLSRSAGWWRDGKFGPDVIREVARAVLLESLLGGITTVADQHLFFPGATADSYIDATIEAATDLGIRFHAARSSMTLGKSEGGFCDDLFVEPVDRVVQHCLGLIDQYHEPEPFGMVRIALGPCGVPYDKPELFEAFAQMAADYDVRLHTHFYEPLDAGMSDHLYGMTPWRFLEKHGWASDRVWLAHAVVPPREEIPEFADAGVAIAHLIAPDLRLGWGLAPIREYLDAGITVGFGTTGSASNDGGNLLGDLRLAALAHRPADPNEPEKWLSARELLRMATRGSAECLGRPDLGVLEEGRAADIACWRLDGVDRVGVHDPAIGLIMTGLSDRASLVVVNGQVLVENERPVLADLERIVANTTALIPKNL
atrazine dechlorinase activity / clearing rate after substitution, compared with wild-type or parental gene [3]: improved activities
